Test results taken from patent publication US20170266266A1, “Functions of 55 Newfound Proteins and Their Medicinal Application in the Treatment and Prevention of Disease” (priority 2012, published 2017).

Test system: atherosclerosis in ApoE knock out mouse on high fat diet
Excerpt: 10 ApoE ko mice were fed with regular chow diet and used as negative control group. 50 ApoE ko mice were fed with high fat diet (35% kcal fat, 1% cholesterol) for 8 weeks, and then the plasma samples were collected for lipid profile measurement before the treatment. 50 ApoE ko mice were assigned into 5 groups based on the fasting overnight plasma TC and HDL level.
5.2. Study Timeline: • 23 Dec. 2011: 60 ApoE mice arrived at chempartner and were housed in the animal facility in the building #3 for the acclimation. • 6 Jan. 2012: Measured the body weight for each mouse. 50 mice were fed with high fat diet and 10 mice were fed with normal chow diet. • 2 Mar. 2012: All mice were fasted over night and plasma samples (about 300 ul whole blood) were collected for lipid profile measurement before treatment with RAAS antibody. • 19 Mar. 2012 to 6 Apr. […] 2012: All mice were fasted over night and plasma sample for each mouse (about 300 ul whole blood) was collected for lipid profile measurement after 16 weeks treatment. Blood glucose was also measured for each mouse. • 9 Jul. 2012: The study was terminated after 16 weeks treatment. Measure BW, sacrificed each mouse, dissected the aorta, heart, liver and kidney and fixed them in 4% PFA.
Antibody products were administrated by intraperitoneal injection every two days (Monday, Wednesday, and Friday). and the positive compound was administered by p.o every day.
The body weight was weighed weekly during the period of treatment. The fasting overnight blood glucose was measured at the end of study by Roche glucometer.
About 300 ul of blood sample was collected from the orbital vein for each mouse and centrifuged at 7000 rpm for 5 min at 4E and the plasma lipid profile was measured by Roche Modular automatic biochemistry analyzer in DaAn Medical Laboratory
After RAAS antibody products treatment for 16 weeks, all mice were sacrificed. Measured body weight and collected blood sample for each mouse. Weighed liver weight and saved a tiny piece of liver into 4% paraformaldehyde (PFA) fixation solution for further analysis. At same time, take the photos with heart, lung, aortas and two kidneys.
5.8. Oil Red Staining Procedure: • 1. Sacrificed the mice and dissected the heart, aorta, and arteries under dissecting microscope. • 2. Briefly wash with PBS and fixed in 4% paraformaldehyde (PFA) overnight at 4[…]. • 3. Rinse with 60% isopropanol • 4. Stain with freshly prepared Oil Red O working solution 10 min. • 1). Oil red O stock stain: 0.5% powder in isopropanol • 2). Working solution: dilute with distilled water (3:2) and filter with membrane (0.22 um) • 5. Rinse with 60% isopropanol 10 second. • 6. Dispel the adherent bit fat outside of the aorta under the dissecting microscope. • 7. Cut the vascular wall gently and keep the integrated arteries using the micro scissors. • 8. Unfold the vascular inner wall with the cover slides and fix it by water sealing tablet.
Scanning the glasses slides with the Aperio ScanScope system and analyze with the image proplus software to measure the area of atherosclerotic plaque lesion. The results were expressed as the percentage of the total aortic surface area covered by lesions. The operation procedure of software was briefly described as follow: Converted the sys version photos into JPG version, then calibrated it and subsequently selected the red regions and then calculate the total area automatically by image proplus software.
The results were expressed as the Mean±SEM and statistically evaluated by student's t-test.

Substance: human Apolipoprotein AI [APOAI]
- plasma HDL (16 week treatment): mild trend to decrease the HDL level
- plaque area and percentage of plaque area from root to right renal artery (16 weeks): no significant difference
- plaque area and percentage of plaque area in arterial arch area (16 weeks): No significant difference
- plaque area and percentage of plaque area in total inner vascular area (16 weeks): No significant difference
- lipid profile (16 weeks treatment): did not affect the lipid profile
- plasma TG level (16 weeks treatment): no effect
- plaque lesion area of aorta (16 weeks treatment, atorvastatin 40 mg/kg): did not reduce the plaque lesion area of aorta
- deaths in treatment groups (after 15 doses, i.p. daily on weekdays): several mice died in the treatment groups
- body weight vs vehicle group (mouse, in vivo): no significant difference
